Assay results as given in patent publication US20090143391A1, “Aryl and heteroaryl fused imidazo [1,5-a] pyrazines as inhibitors of phosphodiesterase 10” (priority 2007, published 2009).

Columns and labels:
PDE10 from pig striatum = PDE10 from pig striatum (Sus scrofa, UniProt A0A287B941); assay: Inhibition of PDE10 from pig striatum (Method A / Method B), [3H]-cAMP SPA; assay type: biochemical
Procedure: Striatum from male Wistar rats (180-200 g), male hybrid pigs (150 kg) and male guinea pigs (CRL (HA), 500 g) respectively were collected and frozen at −70° C. […] The supernatant is called the cytosolic fraction and was removed and stored on ice. The pellet was resuspended in the same buffer, but containing 1% Triton and incubated for 45 min at 4° C. Both fractions were independently applied onto a 5 ml Hi Trap™ QHP column at the Äkta-FPLC. After washing the columns the bound PDE protein was eluted with an increasing sodium chloride gradient (0 mM-500 mM sodium chloride) in 50 mM Tris/Mg-buffer at 4° C. for the cytosolic fraction and in the presence of 1% Triton for the membrane fraction. […] The fractions with PDE10-activity were pooled and frozen in aliquots until use at −20° C. PDE10 activity was determined in a one step procedure in microtiter plates. The reaction mixture of 100 μl contained 50 mM Tris-HCl/5 mM MgCl2 buffer (pH=7.4) (Sigma, Deisenhofen, Germany; Merck, Darmstadt, Germany) 0.1 μM [^3H]-cAMP (Amersham, Buckinghamshire, UK) and the enzyme. Nonspecific activity was tested without the enzyme. The reaction was initiated by addition of the substrate solution and was carried out at 37 ° C. for 30 minutes. Enzymatic activity was stopped by addition of 25 μl YSi-SPA-beads (Amersham-Pharmacia). One hour later the mixture was measured in a liquid scintillation counter for microtiter plates (Microbeta Trilux). To pipette the incubation mixture a robot Biomek (Fa. Beckman) is used. […] The optimal amount of enzyme in the assay has been determined and optimised for each enzyme preparation and substrate separately before using the enzyme in compound testing. For determination of IC50 values the Hill-plot, 2-parameter-model, was used. […] Striatum from male hybrid pigs (150 kg) were collected and frozen at −70° C. […] The supernatant was removed and the pellet was resuspended in the same buffer, but containing 1% Triton and incubated for 45 min at 4° C. The membrane fraction was applied onto a 5 ml Hi Trap™ QHP column at the Äkta-FPLC. After washing the column the bound PDE protein was eluted with an increasing sodium chloride gradient (0 mM-500 mM sodium chloride) in 50 mM Tris/Mg-buffer at 4° C. in the presence of 1% Triton. […] The fractions with PDE10-activity were pooled and frozen in aliquots until use at −20° C. PDE10 activity was determined in a one step procedure in microtiterplates. The reaction mixture of 100 μl contained 50 mM Tris-HCl/5 mM MgCl2 buffer (pH=7.4) (Sigma, Deisenhofen, Germany; Merck, Darmstadt, Germany) 0.1 μM [3H]-cAMP (Amersham, Buckinghamshire, UK) and the enzyme. Nonspecific activity was tested without the enzyme. The reaction was initiated by addition of the substrate solution and was carried out at 37° C. for 30 minutes. Enzymatic activity was stopped by addition of 25 μl YSi-SPA-beads (Amersham-Pharmacia). One hour later the mixture was measured in a liquid scintillation counter for microtiterplates (Microbeta Trilux). To pipette the incubation mixture a robot Biomek (Fa. Beckman) is used. […] The optimal amount of enzyme in the assay has been determined and optimised for each enzyme preparation before using the enzyme in compound testing. For determination of IC50 values the Hill-plot, 2-parameter-model, was used.

human recombinant PDE10A = target: T1, human recombinant PDE10A (Homo sapiens, UniProt Q9Y233); assay: Inhibition of human recombinant PDE10A (Method B), [3H]-cAMP SPA; assay type: biochemical; conditions: read-out: PDE10 inhibition IC50 PDE10A human
T1 construct: made in house; host or cells: SF21 insect cells (baculovirus)
T1 sequence (Q9Y233 1-779 isoform Q9Y233-1): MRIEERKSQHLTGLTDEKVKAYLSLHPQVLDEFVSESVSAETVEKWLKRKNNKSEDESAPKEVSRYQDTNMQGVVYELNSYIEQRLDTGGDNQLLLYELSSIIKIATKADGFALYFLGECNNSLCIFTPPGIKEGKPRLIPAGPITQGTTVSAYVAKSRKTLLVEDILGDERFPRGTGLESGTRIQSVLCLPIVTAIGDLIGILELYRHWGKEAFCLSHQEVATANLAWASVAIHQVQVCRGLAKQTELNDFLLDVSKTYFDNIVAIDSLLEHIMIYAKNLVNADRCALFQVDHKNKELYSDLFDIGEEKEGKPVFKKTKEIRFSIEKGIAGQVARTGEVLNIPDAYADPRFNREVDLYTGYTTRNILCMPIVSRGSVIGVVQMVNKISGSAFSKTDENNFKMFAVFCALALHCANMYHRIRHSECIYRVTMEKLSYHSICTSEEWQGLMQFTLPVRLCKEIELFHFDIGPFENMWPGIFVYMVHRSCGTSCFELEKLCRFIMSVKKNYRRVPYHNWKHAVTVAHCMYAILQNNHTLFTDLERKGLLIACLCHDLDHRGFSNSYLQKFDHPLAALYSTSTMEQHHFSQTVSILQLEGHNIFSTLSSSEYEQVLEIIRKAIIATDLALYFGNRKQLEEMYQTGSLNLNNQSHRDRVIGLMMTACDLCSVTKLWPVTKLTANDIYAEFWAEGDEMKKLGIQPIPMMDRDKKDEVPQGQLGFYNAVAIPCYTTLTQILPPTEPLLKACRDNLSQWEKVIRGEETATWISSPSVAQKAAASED
Procedure: The gene was than inserted into a baculovirus vector, ligated with the baculovirus DNA. The enzyme-protein was expressed in SF21-cells. The enzyme was isolated from these cells by harvesting the cells by a centrifugation at 200 g to collect the cells. The cells were resuspended in 50 mM Tris-HCl/5 mM MgCl2 buffer (pH=7.4) and lysed by a sonication of the cells. The cytosolic PDE10A was obtained by a centrifugation at 48000 g for 1 h in the supernatant and stored at −70 ° C. PDE10 activity was determined in a one step procedure in microtiterplates. […] Nonspecific activity was tested without the enzyme. The reaction was initiated by addition of the substrate solution and was carried out at 37° C. for 30 minutes. Enzymatic activity was stopped by addition of 25 μl YSi-SPA-beads (Amersham-Pharmacia). One hour later the mixture was measured in a liquid scintillation counter for microtiterplates (Microbeta Trilux). To pipette the incubation mixture a robot Biomek (Fa. Beckman) is used. […] For determination of IC50 values the Hill-plot, 2-parameter-model, was used.

[1] = test system: apomorphine-induced stereotypies; conditions: rats; cited from earlier work
[2] = test system: haloperidol-induced catalepsy; conditions: rats; cited from earlier work
[3] = test system: dopamine concentration in rat brain; conditions: cited from earlier work

Row | Structure (SMILES) | IC50 (PDE10 from pig striatum) | melting point | IC50 (human recombinant PDE10A) | effect on apomorphine-induced stereotypies [1] | effect on haloperidol-induced catalepsy [2] | effect on dopamine concentration in rat brain [3]
1 | CCCc1nc(C)c2c(C#N)nc3ccc(F)cc3n12 [Example 1, 8-Fluoro-3-methyl-1-propyl-imidazo(1,5-a)quinoxaline-4-carbonitrile] | 10 to 100 nM |  |  |  |  | 
2 | CCc1nc(C)c2c(NS(C)(=O)=O)nc3ccccc3n12 [Example 2, N-(1-Ethyl-3-methyl-imidazo(1,5-a)quinoxalin-4-yl)-methanesulfonamide] | ≥ 100 nM |  |  |  |  | 
3 | CCc1nc(C)c2c(NS(C)(=O)=O)nc3ccc(F)cc3n12 [Example 3, N-(1-Ethyl-8-fluoro-3-methyl-imidazo(1,5-a)quinoxalin-4-yl)-methanesulfonamide] | ≥ 100 nM | 268 to 269 °C |  |  |  | 
4 | CCCc1nc(C)c2c(NS(C)(=O)=O)nc3ccc(F)cc3n12 [Example 4, N-(8-Fluoro-3-methyl-1-propyl-imidazo(1,5-a)quinoxalin-4-yl)-methanesulfonamide] | 10 to 100 nM | 277 to 280 °C |  |  |  | 
5 | Cc1nc(-c2ccccc2Cl)n2c1c(NS(C)(=O)=O)nc1ccc(F)cc12 [Example 5, N-(1-(2-Chlorphenyl)-8-fluoro-3-methyl-imidazo(1,5-a)quinoxalin-4-yl)-methanesulfonamide] | 10 to 100 nM |  |  |  |  | 
6 | Cc1nc(C2CCCCC2)n2c1c(NS(C)(=O)=O)nc1ccc(F)cc12 [Example 6, N-(1-Cyclohexyl-8-fluoro-3-methyl-imidazo(1,5-a)quinoxalin-4-yl)-methanesulfonamide] | 10 to 100 nM | 291 to 293 °C |  |  |  | 
7 | CCc1nc(C)c2c(NS(C)(=O)=O)nc3ccc(N4CCCCC4)cc3n12 [Example 7, N-[1-Ethyl-3-methyl-8-(piperidin-1-yl)-imidazo(1,5-a)quinoxalin-4-yl]-methanesulfonamide] | 10 to 100 nM | 223 to 227 °C |  |  |  | 
8 | COc1ccc2nc(C#N)c3c(C)nc(C4CCCCC4)n3c2c1 [Example 8, 1-Cyclohexyl-8-methoxy-3-methyl-imidazo[1,5-a]quinoxaline-4-carbonitrile] | 10 to 100 nM | 244 to 248 °C | ≥ 100 nM |  |  | 
9 | CCCc1nc(C)c2c(NS(C)(=O)=O)nc3ccc(OC)cc3n12 [Example 9, N-(8-Methoxy-3-methyl-1-propyl-imidazo[1,5-a]quinoxalin-4-yl)-methanesulfonamide] |  | 234 to 237 °C | 10 to 100 nM |  |  | 
10 | COc1ccc2nc(NS(C)(=O)=O)c3c(C)nc(C4CCCCC4)n3c2c1 [Example 10, N-(1-Cyclohexyl-8-methoxy-3-methyl-imidazo[1,5-a]quinoxalin-4-yl)-methanesulfonamide] |  | 287 to 288 °C | 10 to 100 nM |  |  | 
11 | CCCc1nc(C)c2c(NS(C)(=O)=O)nc3ccc(OCC4CC4)cc3n12 [Example 11, N-(8-Cyclopropylmethoxy-3-methyl-1-propyl-imidazo[1,5-a]quinoxalin-4-yl)-methanesulfonamide] |  | 240 to 241 °C | ≤ 10 nM |  |  | 
12 | Cc1nc(C2CCCCC2)n2c1c(NS(C)(=O)=O)nc1ccc(OCC3CC3)cc12 [Example 12, N-(1-Cyclohexyl-8-cyclopropylmethoxy-3-methyl-imidazo[1,5-a]quinoxalin-4-yl)-methanesulfonamide] | ≤ 10 nM | 259 to 261 °C | 10 to 100 nM |  |  | 
13 | Cc1nc(C2CCCCC2)n2c1c(NS(C)(=O)=O)nc1ccc(OCc3ccc4ccccc4n3)cc12 [Example 13, N-[1-Cyclohexyl-3-methyl-8-(quinolin-2-ylmethoxy)-imidazo[1,5-a]quinoxalin-4-yl]-methanesulfonamide] | ≤ 10 nM | 255 to 258 °C | ≤ 10 nM |  |  | 
14 | COc1ccc2c(c1)nc(NS(C)(=O)=O)c1c(C)nc(-c3ccccc3Cl)n12 [Example 14, N-[1-(2-Chloro-phenyl)-7-methoxy-3-methyl-imidazo[1,5-a]quinoxalin-4-yl]-methanesulfonamide] | 10 to 100 nM | 277 to 278 °C | 10 to 100 nM |  |  | 
15 | CCCc1nc(C)c2c(NS(C)(=O)=O)nc3cc(OC)ccc3n12 [Example 15, N-(7-Methoxy-3-methyl-1-propyl-imidazo[1,5-a]quinoxalin-4-yl)-methanesulfonamide] | 10 to 100 nM | 222 to 226 °C | 10 to 100 nM |  |  | 
16 | COc1ccc(Cc2nccc3cc(OC)c(OC)cc23)cc1OC [Papaverine] |  |  |  | reduces apomorphine-induced stereotypies | increases haloperidol-induced catalepsy | reducing dopamine concentration

Further lines, with some results ahead:

Row | IC50 (PDE10 from pig striatum) | melting point | IC50 (human recombinant PDE10A) | Structure (SMILES) | effect on apomorphine-induced stereotypies [1] | effect on haloperidol-induced catalepsy [2] | effect on dopamine concentration in rat brain [3]
17 | 10 to 100 nM | 160 to 163 °C |  | CCc1nc(C)c2c(Cl)nc3ccc(N4CCCCC4)cc3n12 [Example B2, 4-Chloro-1-ethyl-3-methyl-8-piperidin-1-yl-imidazo(1,5-a)quinoxaline] |  |  | 
18 | 10 to 100 nM | 125 to 128 °C |  | CCc1nc(C)c2c(Cl)nc3ccccc3n12 [Example B3] |  |  | 
19 | 10 to 100 nM | 133 to 135 °C |  | CCCc1nc(C)c2c(Cl)nc3ccc(F)cc3n12 [Example B6, 4-Chloro-8-fluoro-3-methyl-1-propyl-imidazo(1,5-a)quinoxaline] |  |  | 
20 | 10 to 100 nM | 205 to 210 °C |  | Cc1nc(C2CCCCC2)n2c1c(Cl)nc1ccc(F)cc12 [Example B7] |  |  | 
21 | ≥ 100 nM | 244 to 248 °C |  | Cc1nc(C2CCCCC2)n2c1c(Cl)nc1ccc(Cl)cc12 [Example B9] |  |  | 
22 |  | 212 to 215 °C | 10 to 100 nM | COc1ccc2nc(Cl)c3c(C)nc(C4CCCCC4)n3c2c1 [Example B11] |  |  | 
23 |  | 103 to 105 °C | 10 to 100 nM | CCCc1nc(C)c2c(Cl)nc3ccc(OCC4CC4)cc3n12 [Example B12] |  |  | 
24 |  | 165 to 168 °C | ≥ 100 nM | Cc1nc(C2CCCCC2)n2c1c(Cl)nc1ccc(OCC3CC3)cc12 [Example B13] |  |  | 
25 |  | 154 to 159 °C | 10 to 100 nM | CCCc1nc(C)c2c(Cl)nc3cc(OC)ccc3n12 [Example B15] |  |  | 
